Assay results published in ChEMBL document CHEMBL5316379, “Potent and Selective BCL-XL Inhibitors and PROTAC Compounds as Potential Cancer Treatment and Immunotherapy” (ACS Med Chem Lett, 2023).

What was measured:
[1] = biological target: von Hippel-Lindau disease tumor suppressor/Bcl-2-like protein 1 (Homo sapiens, UniProt P40337+Q07817); assay: Protac activity at VHL/BCL-xl in human NCI-H1650 cells assessed as induction of BCL-xl degradation by Nano-Glo HiBiT assay; assay type: cell-based
EBC-1 = assay: Growth inhibition of human EBC-1 cells assessed as cell viability incubated for 5 days by CellTiter-Glo assay; assay type: functional; conditions: EBC-1, 120 h, time 5 day

Sequence of von Hippel-Lindau disease tumor suppressor/Bcl-2-like protein 1 (Q07817 whole entry): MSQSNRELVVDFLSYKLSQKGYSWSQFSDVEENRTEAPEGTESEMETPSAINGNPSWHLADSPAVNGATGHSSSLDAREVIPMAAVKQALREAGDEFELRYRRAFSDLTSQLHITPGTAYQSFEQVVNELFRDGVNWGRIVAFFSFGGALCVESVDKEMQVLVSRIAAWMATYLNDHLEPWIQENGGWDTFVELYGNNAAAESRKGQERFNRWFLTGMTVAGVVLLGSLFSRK
Sequence of von Hippel-Lindau disease tumor suppressor/Bcl-2-like protein 1 (P40337 whole entry): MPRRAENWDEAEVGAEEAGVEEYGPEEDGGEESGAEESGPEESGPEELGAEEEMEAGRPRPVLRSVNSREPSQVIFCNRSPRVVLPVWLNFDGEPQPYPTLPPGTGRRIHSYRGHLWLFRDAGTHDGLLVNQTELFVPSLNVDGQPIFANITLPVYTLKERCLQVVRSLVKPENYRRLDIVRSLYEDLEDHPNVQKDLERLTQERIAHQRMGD

| SMILES | EC50 [1] | GI50 (EBC-1) |
| --- | --- | --- |
| Cc1ncsc1-c1ccc([C@H](C)NC(=O)[C@@H]2C[C@@H](O)CN2C(=O)[C@@H](NC(=O)CCCCCCCCCCCCCN(C)CCOC23C[C@@]4(C)C[C@@](C)(C2)C[C@@](Cn2ncc(-c5ccc(N6CCCc7c6nnc(Nc6nc8ccccc8s6)c7C)nc5C(=O)O)c2C)(C3)C4)C(C)(C)C)cc1 | – | 1 nM |
| Cc1ncsc1-c1ccc([C@H](C)NC(=O)[C@@H]2C[C@@H](O)CN2C(=O)[C@@H](NC(=O)CCCCCCCN(C)CCOC23C[C@@]4(C)C[C@@](C)(C2)C[C@@](Cn2ncc(-c5ccc(N6CCCc7c6nnc(Nc6nc8ccccc8s6)c7C)nc5C(=O)O)c2C)(C3)C4)C(C)(C)C)cc1 | 3 nM | 13 nM |
| Cc1ncsc1-c1ccc([C@H](C)NC(=O)[C@@H]2C[C@@H](O)CN2C(=O)[C@@H](NC(=O)CCCCCCN(C)CCOC23C[C@@]4(C)C[C@@](C)(C2)C[C@@](Cn2ncc(-c5ccc(N6CCCc7c6nnc(Nc6nc8ccccc8s6)c7C)nc5C(=O)O)c2C)(C3)C4)C(C)(C)C)cc1 | 3 nM | 9 nM |

More lines, in order of falling EC50 [1], values ahead:

| EC50 [1] | SMILES | GI50 (EBC-1) |
| --- | --- | --- |
| 2 nM | Cc1ncsc1-c1ccc([C@H](C)NC(=O)[C@@H]2C[C@@H](O)CN2C(=O)[C@@H](NC(=O)CCCCCCCCN(C)CCOC23C[C@@]4(C)C[C@@](C)(C2)C[C@@](Cn2ncc(-c5ccc(N6CCCc7c6nnc(Nc6nc8ccccc8s6)c7C)nc5C(=O)O)c2C)(C3)C4)C(C)(C)C)cc1 | 23 nM |
| 1 nM | Cc1ncsc1-c1ccc([C@H](C)NC(=O)[C@@H]2C[C@@H](O)CN2C(=O)[C@@H](NC(=O)CCCCCCCCCCCCCCCN(C)CCOC23C[C@@]4(C)C[C@@](C)(C2)C[C@@](Cn2ncc(-c5ccc(N6CCCc7c6nnc(Nc6nc8ccccc8s6)c7C)nc5C(=O)O)c2C)(C3)C4)C(C)(C)C)cc1 | 5 nM |
| 1 nM | Cc1ncsc1-c1ccc([C@H](C)NC(=O)[C@@H]2C[C@@H](O)CN2C(=O)[C@@H](NC(=O)CCCCCCCCCCCN(C)CCOC23C[C@@]4(C)C[C@@](C)(C2)C[C@@](Cn2ncc(-c5ccc(N6CCCc7c6nnc(Nc6nc8ccccc8s6)c7C)nc5C(=O)O)c2C)(C3)C4)C(C)(C)C)cc1 | 13 nM |
| 1 nM | Cc1ncsc1-c1ccc([C@H](C)NC(=O)[C@@H]2C[C@@H](O)CN2C(=O)[C@@H](NC(=O)CCCCCCCCCCCCCCN(C)CCOC23C[C@@]4(C)C[C@@](C)(C2)C[C@@](Cn2ncc(-c5ccc(N6CCCc7c6nnc(Nc6nc8ccccc8s6)c7C)nc5C(=O)O)c2C)(C3)C4)C(C)(C)C)cc1 | 2 nM |
